Experimental data taken from PMC6868012, “Discovery of novel potential selective HDAC8 inhibitors by combine ligand-based, structure-based virtual screening and in-vitro biological evaluation” (Scientific Reports, 2019).
Like-named read-outs stand apart in the source and are kept apart here.

Key:
HDAC8 [1] = molecular target: T1, HDAC8 (Homo sapiens, UniProt Q9BY41); experiment: HDAC8 activity assay (fluorometric, Sigma CS1010, Boc-Lys(Ac)-AMC); assay type: biochemical; conditions: read-out: HDAC-8 (IC50 in nM)
T1 sequence (Q9BY41 1-377): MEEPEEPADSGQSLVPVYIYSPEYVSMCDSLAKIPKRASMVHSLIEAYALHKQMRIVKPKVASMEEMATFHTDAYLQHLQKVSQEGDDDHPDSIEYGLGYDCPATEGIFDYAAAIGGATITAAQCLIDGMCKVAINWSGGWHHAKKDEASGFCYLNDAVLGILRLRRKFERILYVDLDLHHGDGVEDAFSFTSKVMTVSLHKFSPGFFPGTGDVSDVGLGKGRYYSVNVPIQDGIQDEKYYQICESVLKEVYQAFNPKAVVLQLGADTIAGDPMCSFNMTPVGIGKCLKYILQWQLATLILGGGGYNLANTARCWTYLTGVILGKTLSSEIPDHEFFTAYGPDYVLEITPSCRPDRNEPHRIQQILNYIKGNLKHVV
Method: (§1) HDAC 6 and 8 activities were measured according to the manufacturer’s protocol from Sigma (Cat# CS1010). […] Trichostatin A was used as a reference inhibitor. The Perkin Elmer multimode reader, model-Enspire 2300 was used for fluorescence plate reader.

HDAC6 = molecular target: T2, HDAC6 (Homo sapiens, UniProt Q9UBN7); experiment: HDAC6 activity assay (fluorometric, Sigma CS1010, Boc-Lys(Ac)-AMC); assay type: biochemical; conditions: read-out: HDAC-6 (IC50 in nM)
T2 sequence (Q9UBN7 1-1215): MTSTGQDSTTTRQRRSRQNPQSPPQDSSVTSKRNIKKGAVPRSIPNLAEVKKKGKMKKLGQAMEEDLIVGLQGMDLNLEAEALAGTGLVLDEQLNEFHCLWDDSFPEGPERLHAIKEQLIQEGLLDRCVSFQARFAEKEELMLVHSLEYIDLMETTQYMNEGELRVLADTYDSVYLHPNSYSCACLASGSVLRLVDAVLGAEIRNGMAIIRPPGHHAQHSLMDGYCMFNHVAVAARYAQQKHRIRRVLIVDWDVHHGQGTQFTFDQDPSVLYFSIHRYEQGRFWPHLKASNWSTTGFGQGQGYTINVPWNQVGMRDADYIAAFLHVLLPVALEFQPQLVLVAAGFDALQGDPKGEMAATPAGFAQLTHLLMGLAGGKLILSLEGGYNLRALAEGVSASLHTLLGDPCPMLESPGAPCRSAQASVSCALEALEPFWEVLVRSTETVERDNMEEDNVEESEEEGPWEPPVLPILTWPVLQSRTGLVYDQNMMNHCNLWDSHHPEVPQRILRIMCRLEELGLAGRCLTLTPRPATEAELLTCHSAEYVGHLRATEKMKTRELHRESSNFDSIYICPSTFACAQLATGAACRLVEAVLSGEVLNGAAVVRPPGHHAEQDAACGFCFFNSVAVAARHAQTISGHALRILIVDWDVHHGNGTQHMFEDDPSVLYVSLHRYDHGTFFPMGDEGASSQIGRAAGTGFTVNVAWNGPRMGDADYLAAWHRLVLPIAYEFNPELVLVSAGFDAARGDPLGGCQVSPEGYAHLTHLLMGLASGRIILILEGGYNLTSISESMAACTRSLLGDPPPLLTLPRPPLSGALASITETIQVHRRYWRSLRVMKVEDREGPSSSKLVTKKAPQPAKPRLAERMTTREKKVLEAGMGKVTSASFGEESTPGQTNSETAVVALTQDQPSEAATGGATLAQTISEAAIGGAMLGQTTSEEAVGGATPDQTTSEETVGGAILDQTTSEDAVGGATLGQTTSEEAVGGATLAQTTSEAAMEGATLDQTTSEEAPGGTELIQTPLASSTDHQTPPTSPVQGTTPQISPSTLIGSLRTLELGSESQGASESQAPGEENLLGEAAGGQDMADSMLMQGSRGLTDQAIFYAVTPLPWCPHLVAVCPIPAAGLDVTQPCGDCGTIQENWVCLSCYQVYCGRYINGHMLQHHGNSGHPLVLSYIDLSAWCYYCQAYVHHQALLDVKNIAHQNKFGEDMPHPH
Method: as §1

HDAC8 [2] = molecular target: T1, HDAC8; conditions: cited from earlier work; for Activity (experimental pIC50): Table S2, training and test set molecules, converted from literature IC50; for IC50 / pIC50: Table S1, external validation set

SMILES: COc1cccc(-c2nc(CNc3ccccc3SCC(N)=O)cs2)c1 [SD-01, 2-((2-(((2-(3-methoxyphenyl)thiazol-4-yl)methyl)amino)phenyl)thio)acetamide]
- IC50 (HDAC8 [1]): 9 nM
- IC50 (HDAC6): > 100 nM

SMILES: COC(=O)c1ccc(Oc2coc3cc(OCC(N)=O)ccc3c2=O)cc1 [SD-03, methyl 4-((7-(2-amino-2-oxoethoxy)-4-oxo-4H-chromen-3-yl)oxy)benzoate]
- IC50 (HDAC8 [1]): > 100 nM
- IC50 (HDAC6): > 100 nM

SMILES: NC(=O)Cc1nc(-c2cc3cc(Cl)ccc3o2)cs1 [SD-04, 2-(4-(5-chlorobenzofuran-2-yl)thiazol-2-yl)acetamide]
- IC50 (HDAC8 [1]): > 100 nM
- IC50 (HDAC6): > 100 nM

SMILES: CONC(=O)NCc1ccc2cc(OC)ccc2c1 [SD-05, 1-methoxy-3-((6-methoxynaphthalen-2-yl)methyl)urea]
- IC50 (HDAC8 [1]): 41.6 nM
- IC50 (HDAC6): 30.9 nM

SMILES: Cc1ccc(Cc2cn(C)c3cc(C(=O)NO)ccc23)cc1 [compound 2]
- Activity (experimental pIC50) (HDAC8 [2]): 7.620

SMILES: O=C(COc1ccccc1)Cc1nc(-c2ccc(C(=O)NO)s2)cs1 [compound 3]
- Activity (experimental pIC50) (HDAC8 [2]): 7.420

SMILES: O=C(Cc1ccc(-c2csc(NC(=O)c3cnc([C@H]4CCCNC4)s3)n2)s1)NO [compound 4]
- Activity (experimental pIC50) (HDAC8 [2]): 7.398

SMILES: Cc1ccc(S(=O)(=O)NC(=O)Nc2cccc(/C=C/C(=O)NO)c2)cc1 [compound 5]
- Activity (experimental pIC50) (HDAC8 [2]): 7.398

SMILES: Cc1ccc(S(=O)(=O)NC(=O)NCc2ccc(C(=O)NO)cc2)cc1 [compound 6]
- Activity (experimental pIC50) (HDAC8 [2]): 7.310

SMILES: O=C(NO)c1ccc(-c2cccc(CNCCc3ccccn3)c2)s1 [compound 7]
- Activity (experimental pIC50) (HDAC8 [2]): 7.301

SMILES: O=C(Cc1ccc(-c2csc(NC(=O)c3ccn(CC4CCNCC4)c3-c3ccccc3)c2)s1)NO [compound 9]
- Activity (experimental pIC50) (HDAC8 [2]): 6.854

SMILES: O=C(Cc1cccc(NC(=O)NC(=O)c2ccccc2)c1)NO [compound 10]
- IC50 (HDAC8 [2]): 66000 nM
- pIC50 (HDAC8 [2]): 4.18
- Activity (experimental pIC50) (HDAC8 [2]): 6.824

SMILES: CC(=O)SCC(=O)CCCCCCC(=O)Nc1ccccc1 [compound 11]
- IC50 (HDAC8 [2]): 700 nM
- pIC50 (HDAC8 [2]): 6.155

SMILES: CN(C)Cc1c(C(=O)NCCOc2ccc(C(=O)NO)cc2)oc2ccccc12 [compound 12]
- IC50 (HDAC8 [2]): 19700 nM
- pIC50 (HDAC8 [2]): 4.706

SMILES: O=C(/C=C/c1ccc(CN(CCc2cc3ccccc3[nH]2)C(=O)NC(=O)c2ccccc2)cc1)NO [compound 13]
- IC50 (HDAC8 [2]): 15700 nM
- pIC50 (HDAC8 [2]): 4.804
- Activity (experimental pIC50) (HDAC8 [2]): 6.678

SMILES: O=C(/C=C/c1ccc(CN(CCN2CCCCC2)C(=O)NC(=O)c2ccccc2)cc1)NO [compound 14]
- IC50 (HDAC8 [2]): 350 nM
- pIC50 (HDAC8 [2]): 6.456
- Activity (experimental pIC50) (HDAC8 [2]): 6.638

SMILES: O=C(/C=C/c1ccc2c(c1)nc(COCc1ccccc1)n2CCc1cccnc1)NO [compound 15]
- IC50 (HDAC8 [2]): 180 nM
- pIC50 (HDAC8 [2]): 6.745

SMILES: O=C(Cc1ccccc1)Nc1nc(-c2cc(C(=O)NO)no2)cs1 [compound 16]
- IC50 (HDAC8 [2]): 100 nM
- pIC50 (HDAC8 [2]): 7
- Activity (experimental pIC50) (HDAC8 [2]): 6.469

SMILES: O=C(/C=C/c1ccc2c(c1)nc(-c1ccccn1)n2C[C@H](O)CO)NO [compound 17]
- IC50 (HDAC8 [2]): 1400 nM
- pIC50 (HDAC8 [2]): 5.854
- Activity (experimental pIC50) (HDAC8 [2]): 6.463

SMILES: O=C(Nc1cccc(-c2cc(C(=O)NO)n[nH]2)c1)c1ccccc1 [compound 18]
- IC50 (HDAC8 [2]): 150 nM
- pIC50 (HDAC8 [2]): 6.824
- Activity (experimental pIC50) (HDAC8 [2]): 6.456

SMILES: CN(C)CC(C)(C)Cn1c(CCc2ccccc2)nc2cc(/C=C/C(=O)NO)ccc21 [compound 19]
- IC50 (HDAC8 [2]): 120 nM
- pIC50 (HDAC8 [2]): 6.921

SMILES: CC(/C=C/C(=O)NO)=C\C(C)Cc1ccc(N(C)C)cc1 (stereo not shown) [compound 20]
- IC50 (HDAC8 [2]): 220 nM
- pIC50 (HDAC8 [2]): 6.658
- Activity (experimental pIC50) (HDAC8 [2]): 6.398

SMILES: O=C(/C=C/c1ccc2c(c1)ncn2Cc1ccccc1)NO [compound 21]
- IC50 (HDAC8 [2]): 52 nM
- pIC50 (HDAC8 [2]): 7.284

SMILES: O=C(NO)c1ccc(CN2CCN(C(=O)NC(=O)c3ccccc3)CC2)cc1 [compound 22]
- IC50 (HDAC8 [2]): 29 nM
- pIC50 (HDAC8 [2]): 7.538
- Activity (experimental pIC50) (HDAC8 [2]): 6.337

SMILES: O=C(CCCCCNC(=O)NC(=O)c1ccccc1)NO [compound 25]
- Activity (experimental pIC50) (HDAC8 [2]): 5.971

SMILES: O=C(NO)c1ccc(NC(=S)NN=C(c2ccccc2)c2ccccc2)cc1 [compound 30]
- Activity (experimental pIC50) (HDAC8 [2]): 4.633

SMILES: C[C@H](N)C(=O)NCc1nnc(-c2ccccc2)o1 [compound 31]
- Activity (experimental pIC50) (HDAC8 [2]): 7.009
